This is an account of results in patent US9765092B2, “Tricyclic piperidine compounds” (ACTELION PHARMACEUTICALS LTD, priority 2013, dated 2017).

In the assay the target is human TPH1 (Homo sapiens (Human), UniProt P17752). Kind of assay: Biochemical in vitro assay using fluorescence readout (TPH1 inhibition).
[1] abbreviates: human TPH1, fluorescence readout.

Molecules are shown by their SMILES.

Sequence of human TPH1 (P17752 whole entry): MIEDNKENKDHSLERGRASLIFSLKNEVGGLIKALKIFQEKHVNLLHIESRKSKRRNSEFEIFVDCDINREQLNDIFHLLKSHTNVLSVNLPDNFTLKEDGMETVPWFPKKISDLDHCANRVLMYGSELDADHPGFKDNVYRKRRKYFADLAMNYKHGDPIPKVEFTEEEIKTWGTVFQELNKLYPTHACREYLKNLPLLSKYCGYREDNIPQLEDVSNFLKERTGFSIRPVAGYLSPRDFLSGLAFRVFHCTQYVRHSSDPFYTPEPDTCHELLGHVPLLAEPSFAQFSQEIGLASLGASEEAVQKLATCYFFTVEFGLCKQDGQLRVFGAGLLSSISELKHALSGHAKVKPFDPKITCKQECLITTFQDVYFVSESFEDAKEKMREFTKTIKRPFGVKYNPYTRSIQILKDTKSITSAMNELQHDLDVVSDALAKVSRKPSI

Regarding `Cc1nn2c3c(nc2s1)CCN(C(=O)COc1ccc(C#N)cc1Cl)C3c1ccc(Cl)cc1F` (stereo not shown) [Example 1.4.24, 3-chloro-4-(2-(5-(4-chloro-2-fluorophenyl)-2-methyl-7,8-dihydro-[1,3,4]thiadiazolo[2′,3′:2,3]imidazo[4,5-c]pyridin-6(5H)-yl)-2-oxoethoxy)benzonitrile], the 50% inhibitory concentration (IC50) (commonly the concentration that gives 50% inhibition) under setting [1] is 11 nM.
On the same count and under the same terms, then `Cc1nn2c3c(nc2s1)CCN(C(=O)COc1ccc(C(F)(F)F)nc1Cl)C3c1scnc1C` (stereo not shown) [Example 1.32.4, 2-((2-chloro-6-(trifluoromethyl)pyridin-3-yl)oxy)-1-(2-methyl-5-(4-methylthiazol-5-yl)-7,8-dihydro-[1,3,4]thiadiazolo [2′,3′:2,3]imidazo[4,5-c]pyridin-6(5H)-yl)ethanone], with 21 nM.
Same read-out and setting: then `O=C(COc1ccc2ccncc2c1)N1CCc2nc3sccn3c2C1c1nc2ccccc2s1` (stereo not shown) [Example 6.12.9, 1-(5-(benzo[d]thiazol-2-yl)-7,8-dihydrothiazolo-[2′,3′:2,3]imidazo[4,5-c]pyridin-6(5H)-yl)-2-(isoquinolin-7-yloxy)ethanone], with 12 nM; and `Cc1nn2c3c(nc2s1)CCN(C(=O)COc1ccc(N2CC(F)(F)C2)nc1Cl)C3c1ncc(Cl)cc1F` (stereo not shown) [Example 1.33.2, 1-(5-(5-chloro-3-fluoropyridin-2-yl)-2-methyl-7,8-dihydro-[1,3,4]thiadiazolo[2′,3′:2,3]imidazo[4,5-c]pyridin-6(5H)-yl)-2-((2-chloro-6-(3,3-difluoroazetidin-1-yl)pyridin-3-yl)oxy)ethanone], with 4 nM; and `Cc1nn2c3c(nc2s1)CCN(C(=O)COc1ccc(NS(C)(=O)=O)nc1Cl)C3c1sc(C(C)C)nc1C` (stereo not shown) [Example 1.73.1, N-(6-chloro-5-(2-(5-(2-isopropyl-4-methylthiazol-5-yl)-2-methyl-7,8-dihydro-[1,3,4]thiadiazolo[2′,3′:2,3]imidazo[4,5-c]pyridin-6(5H)-yl)-2-oxoethoxy)pyridin-2-yl)methanesulfonamide], with 60 nM.
The same measure, in the same setting: then `Cc1nn2c3c(nc2s1)CCN(C(=O)COc1ccc(C(F)(F)F)nc1Cl)C3c1sccc1F` (stereo not shown) [Example 1.23.3, 2-((2-chloro-6-(trifluoromethyl)pyridin-3-yl)oxy)-1-(5-(3-fluorothiophen-2-yl)-2-methyl-7,8-dihydro-[1,3,4]thiadiazolo [2′,3′:2,3]imidazo[4,5-c]pyridin-6(5H)-yl)ethanone], with 20 nM; and `Cc1nn2c3c(nc2s1)CCN(C(=O)COc1cccnc1Cl)C3c1ccc(C2CC2)cc1F` (stereo not shown) [Example 1.6.11, 2-((2-chloropyridin-3-yl)oxy)-1-(5-(4-cyclopropyl-2-fluorophenyl)-2-methyl-7,8-dihydro-[1,3,4]thiadiazolo[2′,3′:2,3]imidazo[4,5-c]pyridin-6(5H)-yl)ethanone], with 14 nM; and `Cc1nn2c3c(nc2s1)CCN(C(=O)COc1ccc(S(N)(=O)=O)cc1C)C3c1ccc(C2CC2)cc1F` (stereo not shown) [Example 1.6.14, 4-(2-(5-(4-cyclopropyl-2-fluorophenyl)-2-methyl-7,8-dihydro-[1,3,4]thiadiazolo[2′,3′:2,3]imidazo[4,5-c]pyridin-6(5H)-yl)-2-oxoethoxy)-3-methylbenzenesulfonamide], with 45 nM.
`CONC(=O)c1ccc(OCC(=O)N2CCc3nc4sc(C)nn4c3C2c2ccc(Cl)cc2F)c(Cl)n1` (stereo not shown) [Example 1.4.41, 6-Chloro-5-(2-(5-(4-chloro-2-fluorophenyl)-2-methyl-7,8-dihydro-[1,3,4]thiadiazolo[2′,3′:2,3]imidazo[4,5-c]pyridin-6(5H)-yl)-2-oxoethoxy)-N-methoxypicolinamide] showed an IC50 (full length human TPH1, 40 μM L-tryptophan, 15° C., 60 minutes, fluorescence at 540 nm, mean if determined several times) of 6 nM.
Compound `Cc1nn2c3c(nc2s1)CCN(C(=O)COc1ccc(F)cc1C)C3c1ccc(C2CC2)cc1F` (stereo not shown) [Example 1.6.10, 1-(5-(4-cyclopropyl-2-fluorophenyl)-2-methyl-7,8-dihydro-[1,3,4]thiadiazolo[2′,3′:2,3]imidazo[4,5-c]pyridin-6(5H)-yl)-2-(4-fluoro-2-methylphenoxy)ethanone] displayed a half-maximal inhibitory concentration (IC50) under setting [1] of 6 nM.
